Experimental data: patent US10149474B2, “Herbicidal compositions comprising isoxaflutole and diflufenican” (BAYER CROPSCIENCE AKTIENGESELLSCHAFT, priority 2015, dated 2018)

Columns and labels:
Assay in all cases: Greenhouse trial, herbicidal activity against weed plants pre-emergence
Conditions in all cases: 3 weeks
POLCO = assay type: in vivo, Polygonum convolvulus
From the text: (§1) Test Conditions in the Greenhouse Trial, Herbicidal Activity Against Weed Plants Pre-Emergence
(§2) Seeds of monocotyledonous and dicotyledonous weed plants and crop plants are shown in sandy loam soil in wood fibre pots, and covered with soil. The compounds of the invention, formulated in the form of wettable powders (WP) or emulsifiable concentrates (EC), are then applied to the surface of the covering earth, in the form of an aqueous suspension or emulsion, with a water application rate when converted of 600 to 800 I/ha with addition of 0.2% of wetting agent. Following the treatment, the pots are placed in a greenhouse and maintained under good growth conditions for the test plants. Visual scoring of the damage to the trial plants takes place after a trial time of 3 weeks in comparison to untreated controls (herbicidal activity in percent (%): 100% activity=plants have died; 0% activity=as control plants). The results are set out in the tables which follow.
POLCO Polygonum convolvulus
(§3) E^C=Expected value according to Colby (E^C=A+B−A×B/100)
(§4) Δ=Difference (%) between measured value and expected value (%) (measured value minus expected value)
(§5) • measured value E is greater than E^C:→synergism (+Δ) • measured value E is equal to E^C:→additive effect • measured value E is smaller than E^C:→antagonism (−Δ)

PHBPU = assay type: in vivo, Pharbitis purpureum
From the text: as §1, §2
PHBPU Pharbitis purpureum
as §3, §4, §5

AMAPA USA12001 = assay type: in vivo, Amaranthus palmeri
From the text: as §1, §2
AMAPA (USA12001) Amaranthus palmeri (against HPPD-resistant species)
as §3, §4, §5

POAAN = assay type: in vivo, Poa annua
From the text: as §1, §2, §3, §4, §5

AMATA = assay type: in vivo, Amaranthus tamariscinus
From the text: as §1, §2
AMATA Amaranthus tamariscinus
as §3, §4, §5

ECHCG = assay type: in vivo, Echinochloa crus galli
From the text: as §1, §2
ECHCG Echinochloa crus galli
as §3, §4, §5

EPHHL = assay type: in vivo, Euphorbia heterophylla
From the text: as §1, §2
EPHHL Euphorbia heterophylla
as §3, §4, §5

CS(=O)(=O)c1cc(C(F)(F)F)ccc1C(=O)c1cnoc1C1CC1 [IFT, isoxaflutole]
Activity [%] against POLCO (POLCO; rate 3 g/ha): 0%
Activity [%] against POLCO (POLCO; rate 13 g/ha): 35%
Activity [%] against PHBPU (PHBPU; rate 6 g/ha): 20%
Activity [%] against AMAPA USA12001 (AMAPA USA12001; rate 6 g/ha): 0%
Activity [%] against AMAPA USA12001 (AMAPA USA12001; rate 13 g/ha): 15%
Activity [%] against AMAPA USA12001 (AMAPA USA12001; rate 25 g/ha): 55%
Activity [%] against POAAN (POAAN; rate 6 g/ha): 0%
Activity [%] against POAAN (POAAN; rate 25 g/ha): 0%
Activity [%] against AMATA (AMATA; rate 3 g/ha): 10%
Activity [%] against ECHCG (ECHCG; rate 3 g/ha): 73%
Activity [%] against EPHHL (EPHHL; rate 6 g/ha): 70%

O=C(Nc1ccc(F)cc1F)c1cccnc1Oc1cccc(C(F)(F)F)c1 [DFF, diflufenican]
Activity [%] against POLCO (POLCO; rate 37.5 g/ha): 55%
Activity [%] against PHBPU (PHBPU; rate 9.375 g/ha): 0%
Activity [%] against PHBPU (PHBPU; rate 18.75 g/ha): 3%
Activity [%] against PHBPU (PHBPU; rate 37.5 g/ha): 25%
Activity [%] against PHBPU (PHBPU; rate 75 g/ha): 70%
Activity [%] against AMAPA USA12001 (AMAPA USA12001; rate 9.375 g/ha): 20%
Activity [%] against AMAPA USA12001 (AMAPA USA12001; rate 18.75 g/ha): 35%
Activity [%] against AMAPA USA12001 (AMAPA USA12001; rate 37.5 g/ha): 45%
Activity [%] against AMAPA USA12001 (AMAPA USA12001; rate 75 g/ha): 70%
Activity [%] against POAAN (POAAN; rate 9.375 g/ha): 3%
Activity [%] against POAAN (POAAN; rate 18.75 g/ha): 88%
Activity [%] against AMATA (AMATA; rate 9.375 g/ha): 83%
Activity [%] against ECHCG (ECHCG; rate 9.375 g/ha): 5%
Activity [%] against ECHCG (ECHCG; rate 18.75 g/ha): 5%
Activity [%] against EPHHL (EPHHL; rate 37.5 g/ha): 30%
